{"source": "patent US20160193278A1", "about": "“METHODS AND COMPOSITIONS FOR PREVENTING OR TREATING LEBER'S HEREDITARY OPTIC NEUROPATHY” (STEALTH BIOTHERAPEUTICS CORP, priority 2013, published 2016)", "key": {"mu-opioid receptor": {"target": "mu-opioid receptor (Homo sapiens, UniProt P35372)", "sequence (P35372 whole entry, species assumed)": "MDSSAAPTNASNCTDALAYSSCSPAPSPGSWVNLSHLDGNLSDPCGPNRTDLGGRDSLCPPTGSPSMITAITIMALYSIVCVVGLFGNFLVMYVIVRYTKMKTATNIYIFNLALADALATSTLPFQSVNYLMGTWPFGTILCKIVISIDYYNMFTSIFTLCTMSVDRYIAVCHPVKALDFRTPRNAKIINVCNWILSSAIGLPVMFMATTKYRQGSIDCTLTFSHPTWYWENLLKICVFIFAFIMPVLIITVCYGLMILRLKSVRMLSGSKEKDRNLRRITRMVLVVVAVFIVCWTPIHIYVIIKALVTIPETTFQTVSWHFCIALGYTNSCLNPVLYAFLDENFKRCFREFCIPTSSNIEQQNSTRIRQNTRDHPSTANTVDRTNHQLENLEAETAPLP", "settings": "cited from earlier work"}, "[1]": {"system": "several mammalian cell types", "settings": "cited from earlier work"}, "[2]": {"system": "excessive production of reactive oxygen species", "settings": "cited from earlier work"}, "[3]": {"system": "murine model of LHON (ND6 P25L mutation)", "assay": "Prevention of LHON in ND6 P25L mouse model (Example 1)", "format": "in vivo", "settings": "ND6 P25L mice"}, "[4]": {"system": "murine model of LHON (ND6 P25L mutation)", "assay": "Treatment of LHON in ND6 P25L mouse model (Example 2)", "format": "in vivo", "settings": "ND6 P25L mice"}, "[5]": {"system": "human subjects at risk of having, suspected of having, or diagnosed as having LHON", "assay": "Prevention and treatment of LHON in human subjects (Example 3)", "format": "in vivo", "procedure": "Human subjects at risk of having, suspected of having, or diagnosed as having LHON are administered a therapeutically effective amount of an aromatic-cationic peptide of the present technology, such as D-Arg-2′,6′-Dmt-Lys-Phe-NH2, alone or in conjunction with one or more additional therapeutic agents, on a therapeutic schedule appropriate for the prophylactic/therapeutic needs of the individual.\nLHON patients are administered 1-10 μg D-Arg-2′,6′-Dmt-Lys-Phe-NH2 or saline vehicle subcutaneously once daily for 12 months. In another treatment group, LHON patients receive 1 drop of 1%, 3%, or 5% D-Arg-2′,6′-Dmt-Lys-Phe-NH2 ophthalmic solution or saline vehicle in both eyes three times per day for 12 months. Subjects are assessed periodically for signs and symptoms associated with LHON according to one or more criteria described herein."}, "[6]": {"system": "LHON cybrid cells (11778/ND4, 3460/ND1, 14484/ND6)", "assay": "ATP synthesis rate in LHON cybrids (Example 4)", "format": "cell-based, human", "settings": "1-10 μg, compared to untreated LHON cybrid cells", "from_the_text": "(§1) Cybrid cell lines are constructed using enucleated fibroblasts from a control individual (i.e., negative for LHON) and 3 unrelated probands with LHON as mitochondria donors. One control cybrid cell line and three LHON cybrid cell lines, one for each of the most common pathogenic mutations found in LHON, i.e., mutations at positions 11778/ND4, 3460/ND1, and 14484/ND6 of mtDNA, are produced.\n(§2) The mitochondrial donor cytoplast is fused with the osteosarcoma (143B.TK-)-derived 206 cell line (rho^0 206 cell line). All fibroblast cell lines are established from skin biopsy samples or from umbilical cord specimens after having obtained the informed consent of LHON and control patients. […]\n(§3) 1 ml of each cybrid cell line at 5×10^6 cells/ml is individually plated in tissue culture plates with growth media. […] After incubation for 1 hour at 37° C., the ATP synthesis rate and cellular respiration are measured.\nThe ATP synthesis rate is assayed by permeabilizing the cells with digitonin according to the method described by Ouhabi et al., Anal Biochem., 263: 169-175 (1998). […] The ATP content is measured using the luciferin-luciferase chemiluminescent method, e.g., described in Stanley et al., Anal Biochem., 29: 381-392 (1969)."}, "[7]": {"system": "LHON cybrid cells (11778/ND4, 3460/ND1, 14484/ND6)", "assay": "Respiratory rate of digitonin-permeabilized LHON cybrids (Example 4)", "format": "cell-based, human", "settings": "1-10 μg, compared to untreated LHON cybrid cells", "from_the_text": "as §1\nas §2, with “patients. Cell fusions of fibroblast-derived cytoplasts (enucleated fibroblasts) with the rho^0 206 cells are performed using the protocol, e.g., described in King et al., Science, 246: 500-03 (1989).” for “patients.”\nas §3\nRespiratory rates of digitonin-permeabilized cell samples are measured at 30° C. using a Clark-type oxygen electrode as previously described by Aicardi et al., Biochem Pharmacol., 31:3703-3705 (1982). The respiratory control ratio (RCR) is evaluated using glutamate-malate as a substrate."}, "[8]": {"system": "reactive oxygen species (ROS) production", "settings": "known in the art; demonstrated in U.S. Pat. Nos. 7,550,439 and 7,576,061; cited from earlier work"}, "[9]": {"system": "caspase activation and apoptosis", "settings": "known in the art; cited from earlier work"}, "quails": {"system": "quails", "settings": "group with high zeaxanthin concentrations; cited from earlier work"}, "LHON patients [10]": {"system": "LHON patients", "settings": "cited from earlier work"}, "LHON patients [11]": {"system": "LHON patients", "settings": "900 mg/d for 24 weeks, vs placebo; preliminary press release; cited from earlier work"}, "[12]": {"system": "brain mitochondrial H2O2 production", "assay": "Brain mitochondrial / synaptosome H2O2 production with rotenone", "format": "biochemical, mouse", "settings": "for decrease of the rate of generation of H2O2 during RET conditions: succinate plus oligomycin"}, "[13]": {"settings": "once daily from 0-14 months of age"}, "[14]": {"settings": "once daily from 14-24 months of age"}}, "note": "Where no end group is shown, it is not given here. [ ]: non-standard residue; d: D form.", "data": [{"compound": "F[dR]FK-NH2", "values": [{"measurement": "mu-opioid receptor agonist activity", "setting": "mu-opioid receptor", "result": "does not have mu-opioid receptor agonist activity"}]}, {"compound": "Tyr-D-Arg-Phe-Lys-NH2", "values": [{"measurement": "mu-opioid receptor agonist activity", "setting": "mu-opioid receptor", "result": "has mu-opioid receptor agonist activity"}]}, {"compound": "2′,6′-Dmt-D-Arg-Phe-Lys-NH2", "values": [{"measurement": "penetration of the plasma membrane", "setting": "[1]", "result": "readily penetrates the plasma membrane of several mammalian cell types in an energy-independent manner"}]}, {"compound": "Cc1c(C)c2c(c(C)c1O)CCC(C)(C(=O)O)O2", "note": "(stereo not drawn) [Trolox]", "values": [{"measurement": "protective effects in vitro", "setting": "[2]", "result": "modest protective effects"}]}, {"compound": "COC1=C(OC)C(=O)C(C/C=C(\\C)CC/C=C(\\C)CC/C=C(\\C)CC/C=C(\\C)CC/C=C(\\C)CC/C=C(\\C)CC/C=C(\\C)CC/C=C(\\C)CC/C=C(\\C)CCC=C(C)C)=C(C)C1=O", "note": "[coenzyme Q-10]", "values": [{"measurement": "protective effects in vitro", "setting": "[2]", "result": "modest protective effects"}]}, {"compound": "D-Arg-2′,6′-Dmt-Lys-Phe-NH2", "values": [{"measurement": "RGC axonal swelling and preferential loss of smallest fibers", "setting": "[3]; [13]", "result": "prevent the onset of, delay the onset of, or reduce the severity of these effects"}, {"measurement": "abnormal mitochondrial morphology and proliferation in RGC axons", "setting": "[3]; [13]", "result": "prevent the onset of, delay the onset of, or reduce the severity of these effects"}, {"measurement": "altered liver mitochondria complex I activity", "setting": "[3]; [13]", "result": "prevent the onset of, delay the onset of, or reduce the severity of these effects"}, {"measurement": "effects of the ND6 P25L mutation; LHON and its symptoms", "setting": "[3]; [13]", "result": "prevent the onset of, delay the onset of, and/or reduce the severity (e.g., ameliorate) of the effects of the ND6 P25L mutation"}, {"measurement": "forward / reverse electron flow ROS production in liver mitochondria", "setting": "[3]; [13]", "result": "prevent the onset of, delay the onset of, or reduce the severity of these effects"}, {"measurement": "reduced complex I activity and altered ROS production in synaptosomes", "setting": "[3]; [13]", "result": "prevent the onset of, delay the onset of, or reduce the severity of these effects"}, {"measurement": "reduced retinal response (electroretinogram deficits)", "setting": "[3]; [13]", "result": "prevent the onset of, delay the onset of, or reduce the severity of (e.g. ameliorate) these effects"}, {"measurement": "effect of combination compared to any individual therapeutic agent alone", "setting": "[3]; in combination with one or more additional therapeutic agents, prevention", "result": "synergistic effects"}, {"measurement": "RGC axonal swelling and preferential loss of smallest fibers", "setting": "[4]; [14]", "result": "reduce or eliminate the effects of the ND6 P25L mutation"}, {"measurement": "abnormal mitochondrial morphology and proliferation in RGC axons", "setting": "[4]; [14]", "result": "reduce or eliminate the effects of the ND6 P25L mutation"}, {"measurement": "altered liver mitochondria complex I activity", "setting": "[4]; [14]", "result": "reduce or eliminate the effects of the ND6 P25L mutation"}, {"measurement": "forward / reverse electron flow ROS production in liver mitochondria", "setting": "[4]; [14]", "result": "reduce or eliminate the effects of the ND6 P25L mutation"}, {"measurement": "reduced complex I activity and altered ROS production in synaptosomes", "setting": "[4]; [14]", "result": "reduce or eliminate these effects of the ND6 P25L mutation"}, {"measurement": "reduced retinal response (electroretinogram deficits)", "setting": "[4]; [14]", "result": "reduce or eliminate the effects of the ND6 P25L mutation"}, {"measurement": "effect of combination compared to any individual therapeutic agent alone", "setting": "[4]; in combination with one or more additional therapeutic agents, treatment", "result": "synergistic effects"}, {"measurement": "symptoms of LHON", "setting": "[5]; human subjects at risk of, suspected of or diagnosed as having LHON", "result": "prevent the onset of, delay the onset of, or reduce the severity of the symptoms of LHON"}, {"measurement": "effect of combination compared to any individual therapeutic agent alone", "setting": "[5]; in combination with one or more additional therapeutic agents, human subjects", "result": "synergistic effects"}, {"measurement": "ATP synthesis rate", "setting": "[6]", "result": "greater ATP synthesis rate"}, {"measurement": "respiratory rate", "setting": "[7]", "result": "higher respiratory rate"}, {"measurement": "mu-opioid receptor agonist activity", "setting": "mu-opioid receptor", "result": "does not have mu-opioid receptor agonist activity"}, {"measurement": "anti-oxidant properties", "setting": "[8]", "result": "possess anti-oxidant properties"}, {"measurement": "caspase activation and apoptosis", "setting": "[9]", "result": "capacity to inhibit caspase activation and apoptosis"}]}, {"compound": "CC1=C(/C=C/C(C)=C/C=C/C(C)=C/C=C/C=C(C)/C=C/C=C(C)/C=C/C2=C(C)C[C@@H](O)CC2(C)C)C(C)(C)C[C@H](O)C1", "note": "[zeaxanthin]", "values": [{"measurement": "light damage of the retina (apoptotic photoreceptor cells)", "setting": "quails", "result": "minimal damage"}]}, {"compound": "COC1=C(OC)C(=O)C(CCCCCCCCCCO)=C(C)C1=O", "note": "[idebenone]", "values": [{"measurement": "diameter of the central scotomas after treatment", "setting": "LHON patients [10]; one 11778/ND4 LHON patient, from about 20 degrees", "result": "less than 5 degrees"}, {"measurement": "recovery of visual function", "setting": "LHON patients [10]; seven LHON patients, about 450 mg/d", "result": "recovery of visual acuity, color vision, and visual fields"}, {"measurement": "final visual acuity", "setting": "LHON patients [11]", "result": "better final visual acuity than the placebo group"}]}, {"compound": "N[C@@H](CCC(=O)N[C@@H](CS)C(=O)NCC(=O)O)C(=O)O", "note": "[glutathione]", "values": [{"measurement": "protective effects in vitro", "setting": "[2]", "result": "modest protective effects"}]}, {"compound": "C=C(C)[C@H]1Cc2c(ccc3c2O[C@@H]2COc4cc(OC)c(OC)cc4[C@@H]2C3=O)O1", "note": "[rotenone]", "values": [{"measurement": "decrease of the rate of generation of H2O2 during RET conditions", "setting": "[12]; ND6 P25L mice", "result": "approximately 59%"}, {"measurement": "increase of the rate of H2O2 production during forward electron transfer", "setting": "[12]; ND6 P25L synaptosomes", "result": "~2.7", "unit": "fold"}, {"measurement": "decrease of the rate of generation of H2O2 during RET conditions", "setting": "[12]; wild-type animals", "result": "approximately 79%"}, {"measurement": "increase of the rate of H2O2 production during forward electron transfer", "setting": "[12]; wild-type synaptosomes", "result": "~2.3", "unit": "fold"}]}]}
